Converted amounts (≈) assume the structure as drawn. Some results are limits rather than exact numbers.

The values that follow come from PMC5971037, “Synthesis and evaluation of antimicrobial, antitubercular and anticancer activities of 2-(1-benzoyl-1H-benzo[d]imidazol-2-ylthio)-N-substituted acetamides” (Chemistry Central Journal, 2018).

The test system of assay [1] is B. subtilis. As to the kind of experiment: Tube dilution MIC. As to conditions: Bacillus subtilis, 24 h, read-out: MIC B. subtilis.
Assay [2] concerns E. coli. As to the kind of experiment: Tube dilution MIC. Particulars: Escherichia coli, 24 h, read-out: MIC E. coli.
Assay [3] has as its system S. aureus. In words: Tube dilution MIC. Particulars: Staphylococcus aureus, 24 h, read-out: MIC S. aureus.
Assay [4] concerns S. typhi. In words: Tube dilution MIC. It counts as cell-based. As to conditions: Salmonella enterica, 24 h, read-out: MIC S. typhi.
Assay [5] concerns B. cereus. As to the kind of experiment: Tube dilution MIC. Particulars: Bacillus cereus, 24 h, read-out: MIC B. cereus.
For assay [6], the system named is M. tuberculosis H37Rv. In words: MIC by microplate alamar blue assay. It counts as cell-based. As to conditions: Mycobacterium tuberculosis, NA = no activity, read-out: MIC against M. tuberculosis H37Rv. On the technique in general: The colour change of resazurin is a common sign of viable cells or microbes.
Assay [7] concerns E. coli. In words: MBC by subculturing. Type of assay: cell-based. Particulars: Escherichia coli. How it is done: (§1) The minimum bactericidal concentration (MBC) and minimum fungicidal concentration (MFC) of the synthesized benzimidazole derivatives was determined by subculturing 100 µl of culture from each tube that remained clear in MIC determination onto sterilized petri-plates containing fresh agar medium. The petri-plates were incubated and analyzed for microbial growth visually.

The test system of assay [8] is B. subtilis. As to the kind of experiment: MBC by subculturing. Type of assay: cell-based. As to conditions: Bacillus subtilis; read-out: MBC B. subtilis. On the procedure: as §1
Assay [9] deals with S. aureus. In words: MBC by subculturing. Type of assay: cell-based. As to conditions: Staphylococcus aureus. How it is done: as §1
Assay [10] relates to S. typhi. In words: MBC by subculturing. It counts as cell-based. As to conditions: Salmonella enterica, read-out: MBC S. typhi. On the procedure: as §1
Assay [11] has as its system B. cereus. In words: MBC by subculturing. It counts as cell-based. Particulars: Bacillus cereus; read-out: MBC B. cereus. On the procedure:
as §1

Assay [12] has as its system A. niger. In words: microbe, parasite or virus in culture. As to conditions: Aspergillus niger, 168 h, read-out: MIC A. niger.
The test system of assay [13] is MCF7 (human breast cancer) cell line. In words: Sulforhodamine-B (SRB) cytotoxicity assay. Particulars: SRB assay, MCF7 cell line, read-out: IC50 MCF7. Type of assay: cell-based. For orientation: The SRB assay estimates cell density from bound dye.
In assay [14] the test system is HCT116 (human colorectal) cell line. In words: Sulforhodamine-B (SRB) cytotoxicity assay. Type of assay: cell-based. Particulars: HCT-116, SRB assay, HCT116 cell line, read-out: IC50 HCT116.
Assay [15] deals with C. albicans. In words: microbe, parasite or virus in culture. As to conditions: Candida albicans, 48 h, read-out: MIC C. albicans.
In assay [16] the test system is M. tuberculosis H37Rv (NCFT/TB/537). As to the kind of experiment: Well diffusion susceptibility test (zone of inhibition). Type of assay: cell-based. Particulars: Mycobacterium tuberculosis, 672 h, read-out: Diameter of zone of inhibition against H37Rv (NCFT/TB/537), wells of 8 mm, 50 µg/ml test compound, 25 µg/ml standard drug, 4 weeks, NA = no activity. For orientation: In agar diffusion tests the substance spreads into inoculated agar from a disc or well.

The test system of assay [17] is M. tuberculosis H37Rv. As to the kind of experiment: Minimum lethal concentration (MLC). Type of assay: cell-based. As to conditions: Mycobacterium tuberculosis, NA = no activity, read-out: MLC against M. tuberculosis H37Rv.
For assay [18], the system named is C. albicans. In words: MFC by subculturing. Type of assay: cell-based. As to conditions: Candida albicans; read-out: MFC C. albicans. How it is done:
as §1

For assay [19], the system named is A. niger. In words: MFC by subculturing. Type of assay: cell-based. As to conditions: Aspergillus niger; read-out: MFC A. niger. How it is done: as §1

In the case of `CC1=C(C(=O)O)N2C(=O)[C@@H](NC(=O)[C@H](N)c3ccc(O)cc3)[C@H]2SC1` [Cefadroxil, reference compound], the MIC in assay [1], in [2], in assay [3], in [4] and in assay [5] was 370 µM (≈ 134 µg/mL) each time.
By IC50 is commonly meant the concentration needed to halve the response being measured. By MFC is commonly meant the smallest concentration meeting the test's criterion for killing the fungus. As to `O=C(CSc1nc2ccccc2n1C(=O)c1ccccc1)Nc1cccc(Cl)c1` [Compound 5, 2-(1-Benzoyl-1H-benzo[d]imidazol-2-ylthio)-N-(3-chlorophenyl)acetamide], the MIC came to 17.8 µg/mL (≈ 42.2 µM) in assay [6]; 30 µM (≈ 12.7 µg/mL) in assay [12]; 30 µM (≈ 12.7 µg/mL) in assay [1]; 30 µM (≈ 12.7 µg/mL) in [2]; 15 µM (≈ 6.33 µg/mL) in assay [15]; 30 µM (≈ 12.7 µg/mL) in assay [3]. Also, the MIC in assay [4] and in [5] was 30 µM (≈ 12.7 µg/mL) each time. The MBC in [7] is 50 µg/mL (≈ 119 µM); in [8] it was 50 µg/mL (≈ 119 µM); in assay [9], 50 µg/mL (≈ 119 µM); in assay [10], 50 µg/mL (≈ 119 µM); in assay [11] it was greater than 50 µg/mL; in [17] it was 28.1 µg/mL (≈ 66.6 µM). For the same compound, the IC50 in assay [13] came to 83.1 µM; in assay [14] it was 131 µM. Also, the zone of inhibition at 50 µg/mL in assay [16] worked out at 8 mm. Further, the MFC in [18] was 50 µg/mL (≈ 119 µM); in [19], greater than 50 µg/mL.
Turning to `O=c1[nH]cc(F)c(=O)[nH]1` [Compound 5-FU, 5-fluorouracil, reference compound], in assay [14], the concentration for half-maximal inhibition (IC50) was found to be 12.5 µM.
Take `COc1cccc(NC(=O)CSc2nc3ccccc3n2C(=O)c2ccccc2)c1` [Compound 14, 2-(1-Benzoyl-1H-benzo[d]imidazol-2-ylthio)-N-(3-methoxyphenyl)acetamide]: the MBC in [7] is 50 µg/mL (≈ 120 µM); in assay [8] it was greater than 50 µg/mL; in assay [9], greater than 50 µg/mL; in [10], greater than 50 µg/mL; in [11], greater than 50 µg/mL. Besides, the MIC in assay [12], in assay [1], in assay [2], in assay [15], in [3] and in assay [4] was 30 µM (≈ 12.5 µg/mL) each time. Besides, in assay [5], the MIC was 30 µM (≈ 12.5 µg/mL). Besides, the IC50 in assay [13] and in assay [14] was 95.8 µM throughout. Also, the MFC in [18] was 50 µg/mL (≈ 120 µM); in assay [19], greater than 50 µg/mL.
`Cc1ccccc1NC(=O)CSc1nc2ccccc2n1C(=O)c1ccccc1` [Compound 16, 2-(1-Benzoyl-1H-benzo[d]imidazol-2-ylthio)-N–o-tolylacetamide]: the MIC in assay [6] turned out to be 15 µg/mL (≈ 37.4 µM); in [12] it was 31 µM (≈ 12.4 µg/mL); in [1], 31 µM (≈ 12.4 µg/mL); in assay [2] it was 31 µM (≈ 12.4 µg/mL); in [15] it was 16 µM (≈ 6.42 µg/mL); in assay [3] it was 31 µM (≈ 12.4 µg/mL). Also, the MIC in assay [4] and in assay [5] was 31 µM (≈ 12.4 µg/mL) each time. In addition, the MBC in assay [7] is greater than 50 µg/mL; in assay [8] it was 50 µg/mL (≈ 125 µM); in assay [9], 50 µg/mL (≈ 125 µM); in assay [10], 50 µg/mL (≈ 125 µM); in assay [11] it was greater than 50 µg/mL; in assay [17], 28 µg/mL (≈ 69.7 µM). In addition, the IC50 is 124 µM in assay [13] and 87.2 µM in assay [14]. The zone of inhibition at 50 µg/mL in assay [16] stood at 10 mm. For the same compound, the minimal fungicidal concentration (MFC) was 25 µg/mL (≈ 62.3 µM) in [18] and greater than 50 µg/mL in assay [19].
